In patent US7816522B2, “Triazolone derivatives” (Eisai Co., Ltd., priority 2006, dated 2010):
Structures can show the parent of a compound that is named as a salt.

Molecular target: T1, human clotting factor VIIa (Homo sapiens, UniProt P08709)
T1 construct: a human clotting factor VIIa (hereinafter, “Factor VIIa”) purified sample; purchased Enzyme Research Laboratories HFVIIa
Assay: Inhibitory activity against clotting factor VIIa (chromogenic substrate Spectrozyme FVIIa, TF/Factor VIIa enzyme solution)
Format: biochemical
Details: human Factor VIIa 5 nmol/L with human TF 10 nmol/L, room temperature 40 minutes, 405 nm
Summary of the method: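 Human Factor VIIa (5 nmol/L) with human TF (10 nmol/L) in Tris-BSA buffer pH 7.4 containing 15 mmol/L CaCl2 and cephalin, with Spectrozyme FVIIa substrate. Reaction 40 min at room temperature; 4-nitroanilide read at 405 nm. IC50 by non-linear regression over 100 μmol/L–0.1 nmol/L.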

T1 sequence (P08709 213-466 limits assumed): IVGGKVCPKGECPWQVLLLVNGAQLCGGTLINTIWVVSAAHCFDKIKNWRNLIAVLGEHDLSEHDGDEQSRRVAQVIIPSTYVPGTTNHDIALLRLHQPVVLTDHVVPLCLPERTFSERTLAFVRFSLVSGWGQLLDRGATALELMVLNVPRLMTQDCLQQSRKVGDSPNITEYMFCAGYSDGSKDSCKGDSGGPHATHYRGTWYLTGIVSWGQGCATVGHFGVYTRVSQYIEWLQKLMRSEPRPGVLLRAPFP
T1 sequence (P08709 61-212 limits assumed): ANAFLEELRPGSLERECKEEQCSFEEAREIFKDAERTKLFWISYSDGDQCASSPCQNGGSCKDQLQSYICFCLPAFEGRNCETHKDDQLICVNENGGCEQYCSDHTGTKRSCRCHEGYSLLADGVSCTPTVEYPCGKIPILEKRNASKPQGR
T1 sequence (P13726 33-295 partner): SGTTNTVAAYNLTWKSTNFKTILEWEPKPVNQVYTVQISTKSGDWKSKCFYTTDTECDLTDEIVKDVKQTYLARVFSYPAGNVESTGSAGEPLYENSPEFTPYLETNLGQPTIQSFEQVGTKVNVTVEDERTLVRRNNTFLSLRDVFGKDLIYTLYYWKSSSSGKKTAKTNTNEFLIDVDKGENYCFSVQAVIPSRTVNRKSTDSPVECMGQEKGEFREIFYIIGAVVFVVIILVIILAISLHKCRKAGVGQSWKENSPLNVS

IC50 | SMILES
17 nM | COc1cc(F)c(C(Nc2ccc(C(=N)N)cc2)c2nn(-c3ncccc3N)c(=O)[nH]2)cc1OC (stereo not shown) [Example 138, 4-({[1-(3-aminopyridin-2-yl)-5-oxo-4,5-dihydro-1H-[1,2,4]triazol-3-yl]-(2-fluoro-4,5-dimethoxyphenyl)methyl}amino)benzamidine trifluoroacetate]
3.8 nM | CCc1cc(OCCN(C)C)c(F)c(C(Nc2ccc(C(=N)N)cc2)c2nn(-c3ccccc3N)c(=O)[nH]2)c1 (stereo not shown) [Example 139, 4-({[1-(2-aminophenyl)-5-oxo-4,5-dihydro-1H-[1,2,4]triazol-3-yl]-[3-(2-dimethylaminoethoxy)-5-ethyl-2-fluorophenyl]methyl}amino)benzamidine bistrifluoroacetate]
5.3 nM | CCc1cc(OCCN(C)C)c(F)c(C(Nc2ccc(C(=N)N)cc2)c2nn(-c3ccccn3)c(=O)[nH]2)c1 (stereo not shown) [Example 140, 4-({[3-(2-dimethylaminoethoxy)-5-ethyl-2-fluorophenyl]-(5-oxo-1-pyridin-2-yl-4,5-dihydro-1H-[1,2,4]triazol-3-yl)methyl}amino)benzamidine bistrifluoroacetate]
5 nM | CCc1cc(OC(C)CN(C)C)c(F)c(C(Nc2ccc(C(=N)N)cc2)c2nn(-c3ccccn3)c(=O)[nH]2)c1 (stereo not shown) [Example 141, 4-({[3-(2-dimethylamino-1-methylethoxy)-5-ethyl-2-fluorophenyl]-(5-oxo-1-pyridin-2-yl-4,5-dihydro-1H-[1,2,4]triazol-3-yl)methyl}amino)benzamidine bistrifluoroacetate]
4.7 nM | CCc1cc(OCC(C)(C)CN(C)C)c(F)c(C(Nc2ccc(C(=N)N)cc2)c2nn(-c3ccccc3C(=O)O)c(=O)[nH]2)c1 (stereo not shown) [Example 142, 2-(3{(4-carbamimidoyl-phenylamino)-[3-(3-dimethylamino-2,2-dimethylpropoxy)-5-ethyl-2-fluorophenyl]methyl}-5-oxo-4,5-dihydro-1H-[1,2,4]triazol-1-yl}benzoic acid bistrifluoroacetate]
5.1 nM | COc1cc(C(Nc2ccc(C(=N)N)cc2)c2nn(-c3cccnn3)c(=O)[nH]2)cc2c1OCCCO2 (stereo not shown) [Example 147, 4-{[(9-methoxy-3,4-dihydro-2H-benzo[b][1,4]dioxepin-7-yl)-(5-oxo-1-pyridazin-3-yl-4,5-dihydro-1H-[1,2,4]triazol-3-yl)methyl]amino}benzamidine acetate]
59.4 nM | COc1cc(F)c(C(Nc2ccc(C(=N)N)cc2)c2nn(-c3[nH]ncc3C(=O)O)c(=O)[nH]2)cc1OC (stereo not shown) [Example 157, 5-{3-[(4-carbamimidoylphenylamino)-(2-fluoro-4,5-dimethoxyphenyl)methyl]-5-oxo-4,5-dihydro-[1,2,4]triazol-1-yl}-1H-pyrazole-4-carboxylic acid]
6.9 nM | CCOC(=O)c1cn[nH]c1-n1nc(C(Nc2ccc(C(=N)N)cc2)c2cc(OC)c(OC)cc2F)[nH]c1=O (stereo not shown) [Example 157d, 5-{3-[(4-carbamimidoylphenylamino)-(2-fluoro-4,5-dimethoxyphenyl)methyl]-5-oxo-4,5-dihydro-[1,2,4]triazol-1-yl}-1H-pyrazole-4-carboxylic acid ethyl ester]
6.5 nM | CCOC(=O)c1cn[nH]c1-n1nc(C(Nc2ccc(C(=N)N)cc2)c2cc(OC)c3c(c2F)OCCO3)[nH]c1=O (stereo not shown) [Example 175, 5-{3-[(4-carbamimidoylphenylamino)-(5-fluoro-8-methoxy-2,3-dihydrobenzo[1,4]dioxin-6-yl)methyl]-5-oxo-4,5-dihydro-[1,2,4]triazol-1-yl}-1H-pyrazole-4-carboxylic acid ethyl ester acetate]
27.6 nM | COc1cc(OCCCO)c(F)c(C(Nc2ccc(C(=N)N)cc2)c2nn(-c3[nH]ncc3C(=O)O)c(=O)[nH]2)c1 (stereo not shown) [Example 177, 5-(3-{(4-carbamimidoylphenylamino)-[2-fluoro-3-(3-hydroxypropoxy)-5-methoxyphenyl]methyl}-5-oxo-4,5-dihydro-[1,2,4]triazol-1-yl)-1H-pyrazole-4-carboxylic acid acetate]
